For 52 compounds, EC50 results are on record in PubChem BioAssay AID816 (SRMLSC, 2007).

Each structure is given as a SMILES string. Active and inactive are the calls of the source. How the calls were made is not given here.

The test system of the assay is S. cerevisiae GAL1 promoter reporter activation counterscreen. Briefly: yeast Gal1p promoter activation – S. cerevisiae, artefact control for yeast lifespan extension project (AID 816).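 Further: yeast growth read after 24 h of incubation with compounds.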
As for `CCSc1nnc(NC(=O)CSc2nc(C)cc(C)n2)s1`, the EC50 was > 40 µM (inactive).

Take `Cc1[nH]nc2nc3c(c(OC(=O)c4ccccc4)c12)c(=O)n(C)c(=O)n3C`: the EC50 was > 40 µM (inactive).

As for `COn1c(SC2CCCCC2)nc2ccccc2c1=O`, the EC50 is > 40 µM (inactive).

As for `Cc1cc(C(=O)CN2C(=O)NC(C)(CC(C)C)C2=O)c(C)n1-c1ccc2c(c1)OCO2` (configuration not stated), the EC50 was > 40 µM (inactive).

On to `Cc1ccnc(N=Cc2c(O)ccc3oc4c(c23)CCCC4)c1`, for which the EC50 was > 40 µM (inactive).

Consider `CCOC(=O)c1c(NC(=O)C2C3C=CC(C3)C2C(=O)O)sc2c1CCC(CC)C2` (configuration not stated), for which the EC50 is > 40 µM (inactive).

Take `Nn1c(-c2ccccn2)nnc1-c1ccccn1`: the EC50 is > 40 µM (inactive).

For `COc1ccc(-c2cc(N)n(S(=O)(=O)c3c(F)c(F)c(F)c(F)c3F)n2)cc1OC`, the EC50 was > 40 µM (inactive).

In the case of `CNC(=O)/C(C#N)=C/c1c(F)cccc1Cl`, the EC50 is > 40 µM (inactive).

For the compound `CC1=NN(c2ccc(C(F)(F)F)cn2)C(=O)C1`, the EC50 is > 40 µM (inactive).

Regarding `CC1=C(C#N)C2C(/C1=N/O)C2(C)C` (configuration not stated), the EC50 is > 40 µM (inactive).

`CCOC(=O)c1c(C)oc2c1c(C(c1cccnc1)N1CCCCC1)c(O)c1ccccc12` (configuration not stated): the EC50 was > 40 µM (inactive).

As to `Cc1ccc(NC(=O)C2C(=O)N(C)c3ccccc32)cc1` (configuration not stated), the EC50 was > 40 µM (inactive).

As for `N#C/C(=C\c1ccccc1)C(=O)N(c1ccccn1)C1CCCCC1`, the EC50 is > 40 µM (inactive).

`O=S(=O)(ON(c1ccccc1)S(=O)(=O)c1ccccc1)c1ccccc1`: the EC50 was > 40 µM (inactive).

With `CCCCC(=Nc1ccccc1OC)C1=C(O)CC(c2ccccc2)CC1=O` (configuration not stated), the EC50 was > 40 µM (inactive).

Turning to `CCCCC1C(=O)CC[C@H]2[C@@H]1CC(=O)[C@@H]2C/C=C\CCCC(=O)O` (some centres not stated), the EC50 was > 40 µM (inactive).

In the case of `O=C(c1ccccc1)c1nc2ccccc2[nH]c1=O`, the EC50 was > 40 µM (inactive).

As to `CCCCn1c(=O)c2c(O)cc(=O)oc2c2ccccc21`, the EC50 was > 40 µM (inactive).

Consider `O=C(N/N=C/c1ccc(F)cc1)c1c(O)c2ccccc2[nH]c1=O`, for which the EC50 was > 40 µM (inactive).

`CC(C)n1c(-c2ccccc2F)n[nH]c1=S`: the EC50 is > 40 µM (inactive).

`COc1ccc(NC(=S)N2CCN(CCN=CC3=C(O)CC(c4ccccc4)CC3=O)CC2)cc1` (configuration not stated): the EC50 was > 40 µM (inactive).

For the compound `CC(=O)C(C(C)=O)c1c(Cl)c(O)c(O)c2c(C(=O)c3ccccc3)coc12`, the EC50 is > 40 µM (inactive).

Consider `C=C(CC)C(=O)c1ccc(OCC(=O)O)c(Cl)c1Cl`, for which the EC50 was > 40 µM (inactive).

On to `CC1=CS(=O)(=O)CC1Sc1nc2ccccc2[nH]1` (configuration not stated), for which the EC50 was > 40 µM (inactive).

Regarding `CCn1ccc(C(=O)Nc2ccc(S(=O)(=O)Nc3ccccc3OC)cc2)n1`, the EC50 was > 40 µM (inactive).

Regarding `c1ccc(-c2c(-c3ccccc3)n(Cc3ccco3)c3ncnc(NCCCn4ccnc4)c23)cc1`, the EC50 is > 40 µM (inactive).

Regarding `CC(c1ccccc1)N1CCn2c(nc3cc(NC(=O)c4cccs4)ccc32)C1` (configuration not stated), the EC50 is > 40 µM (inactive).

In the case of `O=C1c2ccccc2C(=O)N1OCc1ccccc1`, the EC50 is > 40 µM (inactive).

For `Cc1ccc(C(=O)C2C(=O)c3ccccc3C2=O)cc1`, the EC50 was > 40 µM (inactive).

For `CN(Cc1c(O)ccc2c1oc(=O)c1ccccc12)C1CCCCC1`, the EC50 is > 40 µM (inactive).

For the compound `O=C(NCc1ccco1)c1c(O)c2cccc3c2n(c1=O)CCC3`, the EC50 is > 40 µM (inactive).

Regarding `CC1(C)Cc2ccccc2-c2nnc(SCC(=O)Nc3ccc4c(c3)OCO4)n21`, the EC50 is > 40 µM (inactive).

Consider `CC(=O)[C@H]1[C@H](c2cccc(Cl)c2)C(C#N)(C#N)[C@@H]2c3ccccc3C=CN21`, for which the EC50 is > 40 µM (inactive).

Turning to `N=c1c2c(-c3ccccc3)c(-c3ccccc3)n(Cc3ccco3)c2ncn1CCCn1ccnc1`, the EC50 is > 40 µM (inactive).

In the case of `Cc1oc2c(c(=O)c1C)C(=O)CC(c1ccccc1)C2` (configuration not stated), the EC50 is > 40 µM (inactive).

As for `CS(=O)(=O)c1nc(-c2ccccc2)cc(C(F)(F)F)n1`, the EC50 was > 40 µM (inactive).

For the compound `C=C(C(=O)c1ccccc1)C(C)C(=C)C(=O)c1ccccc1`, the EC50 is > 40 µM (inactive).

On to `CCOc1ccc(/C=C/C(=O)c2c(O)c3ccccc3oc2=O)cc1`, for which the EC50 was > 40 µM (inactive).

For `Cc1ccccc1Oc1cc(-n2ncc(Cl)c(Cl)c2=O)ncn1`, the EC50 was > 40 µM (inactive).

`Cc1ccc(CNc2nc3ccccc3s2)s1`: the EC50 was > 40 µM (inactive).

Turning to `Cc1ccc(NC(=O)Nc2nc(-c3ccc(C)s3)cs2)cc1`, the EC50 is > 40 µM (inactive).

As to `CCc1ccc2nc(N3C(=O)C(O)=C(C(=O)c4ccco4)C3c3cccs3)sc2c1` (configuration not stated), the EC50 is > 40 µM (inactive).

On to `O=Cc1cc2ccccc2nc1SCc1ccc(Cl)cc1`, for which the EC50 was > 40 µM (inactive).

As to `CN(C)/C=C(/C(=O)c1ccc(Cl)cc1Cl)S(=O)(=O)c1ccccc1`, the EC50 is > 40 µM (inactive).

For the compound `CC(=O)Oc1ccc(N(C(C)=O)S(=O)(=O)c2ccc(C)c([N+](=O)[O-])c2)cc1`, the EC50 was > 40 µM (inactive).

With `CCCCn1c(=O)c(C(=O)Nc2cnccn2)c(O)c2ccccc21`, the EC50 is > 40 µM (inactive).

With `COc1ccc(CCN2C(=O)C(O)=C(C(=O)c3ccco3)C2c2cccs2)cc1OC` (configuration not stated), the EC50 is > 40 µM (inactive).

Take `COc1cccc(C2CC3C(=O)C=CC2N3Cc2ccccc2)c1` (configuration not stated): the EC50 is > 40 µM (inactive).

With `c1cncc(-c2nn[nH]n2)c1`, the EC50 was > 40 µM (inactive).

Take `NC(=S)N/N=C/c1coc2cc(Cl)ccc2c1=O`: the EC50 was > 40 µM (inactive).

For the compound `O=C(Nc1ccc(Br)cn1)c1cccc(-c2cc3ccccc3oc2=O)c1`, the EC50 was > 40 µM (inactive).

The term EC50 denotes the concentration that produces a half-maximal response.
